Consider 17 substances from patent US20110039763A1, “TARGETED ANTIMICROBIAL MOIETIES” (C3 JIAN, INC., priority 2009, published 2011).

Entries after “also recorded” stand apart in the source; their conditions may differ.

Test [1] concerns microorganisms. Put plainly: Peptide activities: targeting/binding, antimicrobial, growth or phenotype altering (Tables 7, 8). As to conditions: peptides having multiple activities. Format: cell-based.
The test system of test [2] is microorganisms. Put plainly: Targeting peptide binding to target microorganisms (Tables 3, 10, 12). Conditions: microorganism(s) the targeting peptide binds; binding in aqueous buffers varied with peptide solubility, preferably 1x PBS.
The subject of test [3] is microorganisms. Put plainly: Morphology, biofilm and growth disrupting peptides (Table 5). Format: cell-based. The arrangement: key: A: Peptide aggregates; B: Less hyphal formation; Clumps; Diffuse clumps and small polyps; F: Diffuse growth; H: Thin; I: Growth inhibition; Microcolony formation; Rippled; Small polyps; Thick; W: Halo formation on top, microlonies on bottom. The source says: In certain embodiments peptides that induce alterations in phenotype or other biological activities can also be used as antimicrobial effector moieties.

As for “PF-622: peptide having multiple activities (chain 1 TREDVFSVRLINNIVNKQA; chain 2 TREDVFSVRLINNIVNKQA; Peptide with targeting and/or antimicrobial activity)”, the Activities result in test [1] is recorded as “G B”. In addition, the “Target(s)” value in test [2] is reported as “S. epidermidis; also recorded: P. aeruginosa; also recorded: C. albicans; also recorded: S. pneumoniae; also recorded: E. faecalis; also recorded: C. jeikeium”. For the same substance, the “Organism, effect” value in test [3] (C. jeikeium) is “C. jeikeium (D)”; in test [3] (E. faecalis), “E. faecalis (D)”; in test [3] (MRSA) it was “MRSA (D)”; in test [3] (S. epidermidis), “S. epidermidis (D)”; in test [3] (S. pneumoniae), “S. pneumoniae (M)”.
For the substance “PF-623: peptide having multiple activities (chain 1 VLFAVYLGALDWLFSWLTQKM; chain 2 VLFAVYLGALDWLFSWLTQKM; Peptide with targeting and/or antimicrobial activity)”, in test [1], the Activities result is recorded as “G B”. For the same substance, the “Target(s)” value in test [2] is “S. epidermidis and P. aeruginosa and MRSA and S. pneumoniae and E. faecalis and C. jeikeium”. Further, the “Organism, effect” value in test [3] (C. jeikeium) is reported as “C. jeikeium (R)”; in test [3] (E. faecalis), “E. faecalis (D)”; in test [3] (MRSA), “MRSA (D)”; in test [3] (S. epidermidis), “S. epidermidis (M)”; in test [3] (S. pneumoniae), “S. pneumoniae (D)”.
For “PF-625: peptide having multiple activities (chain 1 SDSTNNARTRKKARDVTTKDIDK; chain 2 SDSTNNARTRKKARDVTTKDIDK; Peptide with targeting and/or antimicrobial activity)”, the Activities result in test [1] is given as “G B”. The “Target(s)” value in test [2] is listed as “S. epidermidis; also recorded: M. luteus; also recorded: S. pneumoniae; also recorded: C. jeikeium”. For the same substance, the “Organism, effect” value in test [3] (S. pneumoniae) is reported as “S. pneumoniae (H)”.
Turning to “PF-626: peptide having multiple activities (chain 1 KYDFDDFEPEEA; chain 2 KYDFDDFEPEEA; Peptide with targeting and/or antimicrobial activity)”, the Activities entry in test [1] is “G B”. For the same substance, in test [2], the “Target(s)” value was “S. epidermidis and M. luteus and E. coli and C. albicans and MRSA and S. pneumoniae and E. faecalis and C. jeikeium”. Further, the “Organism, effect” value in test [3] (S. pneumoniae) was “S. pneumoniae (H)”.
As to “PF-627: peptide having multiple activities (chain 1 INDLLSYFTLHEK; chain 2 INDLLSYFTLHEK; Peptide with targeting and/or antimicrobial activity)”, the Activities result in test [1] is “G B”. Further, in test [2], the “Target(s)” value is “S. epidermidis and P. aeruginosa and MRSA and S. pneumoniae and E. faecalis and C. jeikeium”. Moreover, the “Organism, effect” value in test [3] (C. albicans) was “C. albicans (B)”; in test [3] (E. faecalis), “E. faecalis (H)”; in test [3] (MRSA), “MRSA (R)”; in test [3] (S. epidermidis) it was “S. epidermidis (H)”; in test [3] (S. pneumoniae), “S. pneumoniae (I)”.
Turning to “PF-629: peptide having multiple activities (chain 1 GLAAIATVFALY; chain 2 GLAAIATVFALY; Peptide with targeting and/or antimicrobial activity)”, in test [1], the Activities result is on record as “G B”. In addition, the “Target(s)” value in test [2] is “S. epidermidis and P. aeruginosa and C. albicans and MRSA and S. pneumoniae and E. faecalis and C. jeikeium”. The “Organism, effect” value was “C. jeikeium (R)” in test [3] (C. jeikeium); “E. faecalis (R)” in test [3] (E. faecalis); “MRSA (D)” in test [3] (MRSA); “S. epidermidis (C)” in test [3] (S. epidermidis); “S. pneumoniae (M)” in test [3] (S. pneumoniae).
On to “PF-631: peptide having multiple activities (chain 1 LIIYFSKTGNTARATRQI; chain 2 LIIYFSKTGNTARATRQI; Peptide with targeting and/or antimicrobial activity)”, for which, in test [1], the Activities result was “G B”. For the same substance, in test [2], the “Target(s)” value was “S. epidermidis and P. aeruginosa and C. albicans and MRSA and S. pneumoniae and E. faecalis and C. jeikeium”. The entries for the “Organism, effect” value in test [3] (E. faecalis) and in test [3] (S. pneumoniae) were “E. faecalis (H)” and “S. pneumoniae (I)”, respectively.
As to “PF-632: peptide having multiple activities (chain 1 TTIQGVASLEKHGFRYTIIYPTRI; chain 2 TTIQGVASLEKHGFRYTIIYPTRI; Peptide with targeting and/or antimicrobial activity)”, in test [1], the Activities result is reported as “G B”. The “Target(s)” value in test [2] was “S. epidermidis and P. aeruginosa and C. albicans and MRSA and S. pneumoniae and E. faecalis and C. jeikeium”. Moreover, the “Organism, effect” value in test [3] (B. subtilis) is listed as “B. subtilis (H)”; in test [3] (C. albicans) it was “C. albicans (B)”; in test [3] (C. jeikeium) it was “C. jeikeium (D)”; in test [3] (E. faecalis), “E. faecalis (D)”; in test [3] (MRSA) it was “MRSA (D)”; in test [3] (S. epidermidis) it was “S. epidermidis (D)”. In test [3] (S. pneumoniae), the “Organism, effect” value was “S. pneumoniae (M)”.
For “PF-636: peptide having multiple activities (chain 1 LVRLA; chain 2 LVRLA; Peptide with targeting and/or antimicrobial activity)”, the Activities entry in test [1] is given as “G B”. Besides, in test [2], the “Target(s)” value was “S. epidermidis and C. albicans and MRSA and S. pneumoniae and E. faecalis”. Besides, the “Organism, effect” value in test [3] (B. subtilis) is on record as “B. subtilis (H)”; in test [3] (C. albicans), “C. albicans (B)”; in test [3] (E. faecalis), “E. faecalis (H)”; in test [3] (S. pneumoniae), “S. pneumoniae (H)”.
As for “PF-637: peptide having multiple activities (chain 1 SRIKQDARSVRKYDRIGIFFYSFKSA; chain 2 SRIKQDARSVRKYDRIGIFFYSFKSA; Peptide with targeting and/or antimicrobial activity)”, in test [1], the Activities result is “G B”. For the same substance, the “Target(s)” value in test [2] was “S. epidermidis and P. aeruginosa and C. albicans and MRSA and S. pneumoniae and E. faecalis and C. jeikeium”. Besides, the “Organism, effect” value in test [3] (C. jeikeium) was “C. jeikeium (D)”; in test [3] (E. faecalis), “E. faecalis (D)”; in test [3] (MRSA), “MRSA (M)”; in test [3] (S. epidermidis), “S. epidermidis (M)”; in test [3] (S. pneumoniae), “S. pneumoniae (M)”.
“PF-638: peptide having multiple activities (chain 1 TFILPK; chain 2 TFILPK; Peptide with targeting and/or antimicrobial activity)”: in test [1], the Activities result was “G B”. In test [2], the “Target(s)” value is “S. epidermidis and C. albicans and MRSA and C. jeikeium”. In addition, the “Organism, effect” value in test [3] (E. faecalis) is recorded as “E. faecalis (H)”; in test [3] (MRSA), “MRSA (M)”; in test [3] (S. epidermidis), “S. epidermidis (R)”; in test [3] (S. pneumoniae) it was “S. pneumoniae (I)”.
In the case of “PF-639: peptide having multiple activities (chain 1 QATQIKSWIDRLLVSED; chain 2 QATQIKSWIDRLLVSED; Peptide with targeting and/or antimicrobial activity)”, in test [1], the Activities entry was “G B”. Further, the “Target(s)” value in test [2] is “S. pneumoniae; also recorded: C. jeikeium”. Also, the “Organism, effect” value in test [3] (C. albicans) is “C. albicans (B)”; in test [3] (E. faecalis), “E. faecalis (H)”; in test [3] (MRSA) it was “MRSA (R)”; in test [3] (S. pneumoniae), “S. pneumoniae (I)”.
For the substance “PF-640: peptide having multiple activities (chain 1 MGDINRNF; chain 2 MGDINRNF; Peptide with targeting and/or antimicrobial activity)”, the Activities entry in test [1] was “G B”. The “Target(s)” value in test [2] is reported as “C. albicans”. Besides, the “Organism, effect” value in test [3] (C. albicans) is recorded as “C. albicans (B)”; in test [3] (E. faecalis), “E. faecalis (H)”; in test [3] (S. pneumoniae), “S. pneumoniae (I)”.
As to “PF-642: peptide having multiple activities (chain 1 FTTPMIGIPAGLLGGSYYLKRREEKGK; chain 2 FTTPMIGIPAGLLGGSYYLKRREEKGK; Peptide with targeting and/or antimicrobial activity)”, in test [1], the Activities result is given as “G B”. The “Target(s)” value in test [2] was “M. luteus and MRSA and C. jeikeium”. The “Organism, effect” value in test [3] (MRSA) is on record as “MRSA (M)”.
On to “PF-655: peptide having multiple activities (chain 1 DAPCFDDQFGDLKCQMC; chain 2 DAPCFDDQFGDLKCQMC; Peptide with targeting and/or antimicrobial activity)”, for which the Activities result in test [1] was “G B”. Further, the “Target(s)” value in test [2] is “M. smegmatis”. In addition, the “Organism, effect” value in test [3] (B. subtilis) is “B. subtilis (H)”; in test [3] (MRSA), “MRSA (M)”; in test [3] (S. epidermidis), “S. epidermidis (R)”; in test [3] (S. pneumoniae), “S. pneumoniae (H)”.
For the substance “PF-664: peptide having multiple activities (chain 1 DQLCVEYPARVSTG; chain 2 DQLCVEYPARVSTG; Peptide with targeting and/or antimicrobial activity)”, the Activities entry in test [1] is “G B”. The “Target(s)” value in test [2] is “M. smegmatis”. The “Organism, effect” value in test [3] (E. faecalis) is listed as “E. faecalis (R)”; in test [3] (MRSA), “MRSA (R)”; in test [3] (S. epidermidis), “S. epidermidis (M)”; in test [3] (S. pneumoniae) it was “S. pneumoniae (M)”.
For “PF-681: peptide having multiple activities (TALTTVGVSGARLITYCVGVEDI; Peptide with targeting and/or antimicrobial activity)”, in test [1], the Activities entry is on record as “G B”. In addition, the “Target(s)” value in test [2] is “M. smegmatis”. Besides, the “Organism, effect” value was “C. jeikeium (R)” in test [3] (C. jeikeium); “E. faecalis (R)” in test [3] (E. faecalis); “MRSA (M)” in test [3] (MRSA); “S. epidermidis (M)” in test [3] (S. epidermidis); “S. pneumoniae (M)” in test [3] (S. pneumoniae).
